# Earlier results as cited in patent US20250268820A1 (Zambon S.p.A., priority 2020, published 2025).
# Assays:
# [1] = in vivo
structure (smiles),measurement,setting,value
CCC(C)n1ncn(-c2ccc(N3CCN(c4ccc(OCC5COC(Cn6cncn6)(c6ccc(Cl)cc6Cl)O5)cc4)CC3)cc2)c1=O (stereo not drawn) [itraconazole],ELF exposure as fraction of the plasma concentration,healthy volunteers,approximately ⅓
same,concentration in the alveolar cells with respect to the plasma concentration,healthy volunteers,more than double
same,concentrations in bronchoalveolar lavage fluid and lung tissue in the airways versus plasma,other cases,10 times lower
OC(Cn1cncn1)(Cn1cncn1)c1ccc(F)cc1F [Fluconazole],activity against invasive aspergillosis,invasive aspergillosis,not active
C[C@@H](c1ncncc1F)[C@](O)(Cn1cncn1)c1ccc(F)cc1F [voriconazole],pharmacokinetic profile (Cmax and AUC versus dose),[1],non-linear
same,concentration in homogenates of lung tissue versus plasma,"post-mortem studies, treated patients",comparable to those measured in the plasma
